Values after ≈ are worked out from the molar mass of the structure shown. Values belong to the compound of their own block, whether it stands above or below them.
How the values were obtained:
Experiment in all cases: ≥ marks a high value that may be exact or a test limit, other limits are often not marked, values filed in µg/mL are converted to µM
[1] = tested on: Pseudomonas aeruginosa ATCC 27853
[2] = tested on: Staphylococcus aureus ATCC 29213
[3] = tested on: Escherichia coli MTCC 0723
[4] = tested on: Acinetobacter johnsonii NCDC 0072
[5] = tested on: Staphylococcus aureus NCDC 0111
[6] = tested on: Pseudomonas aeruginosa NCDC 0105
[7] = tested on: Bacillus cereus NCDC 0240
[8] = tested on: Listeria monocytogenes ATCC 19111
[9] = tested on: Salmonella enterica subsp. enterica serovar Typhimurium ATCC 14028
[10] = tested on: Pseudomonas aeruginosa CMCCB 10104
[11] = tested on: Klebsiella pneumoniae
[12] = tested on: Bacillus megaterium
[13] = tested on: Escherichia coli ATCC 25922
[14] = tested on: Shigella dysenteriae
[15] = tested on: Candida albicans ATCC 2002
[16] = tested on: Staphylococcus aureus ATCC 2592
[17] = tested on: Enterobacter cloacae CGMCC 1.57
[18] = tested on: Psychrobacter faecalis X29
[19] = tested on: Enterococcus faecium 091299
[20] = tested on: Klebsiella pneumoniae 08040724
[21] = tested on: Candida glabrata 090902
[22] = tested on: Pseudomonas aeruginosa CGMCC 1.50
[23] = tested on: Enterococcus faecalis 981
[24] = tested on: Nocardia asteroides 201118
[25] = tested on: Staphylococcus aureus 22401
[26] = tested on: Pseudomonas aeruginosa A62
[27] = tested on: Bacillus subtilis A47
[28] = tested on: Escherichia coli 44102
[29] = tested on: Klebsiella pneumoniae DM4299
[30] = tested on: Pseudomonas aeruginosa DM23155
[31] = tested on: Porphyromonas gingivalis ATCC 53978
[32] = tested on: Porphyromonas gingivalis ATCC 33277
[33] = tested on: Escherichia coli K12 MG1655
[34] = tested on: Staphylococcus aureus 68 HER 1049

- MIC [1]: 100 µM (≈ 177 µg/mL)
- MIC [2]: 6 µM (≈ 10.6 µg/mL)
- MIC [3]: ≥ 200 µM
- MIC [4]: ≥ 200 µM
- MIC [5]: 6 µM (≈ 10.6 µg/mL)
- MIC [6]: ≥ 50 µM
- MIC [7]: ≥ 100 µM
- MIC [8]: 3 µM (≈ 5.32 µg/mL)
- MIC [9]: 0.2 µM (≈ 0.355 µg/mL)
SMILES: CC[C@H](C)[C@H](NC(=O)[C@H](CO)NC(=O)[C@H](Cc1c[nH]c2ccccc12)NC(=O)[C@@H]1CCCN1C(=O)[C@@H](NC(=O)[C@H](C)N)[C@@H](C)CC)C(=O)N[C@@H](Cc1c[nH]c2ccccc12)C(=O)N[C@@H](Cc1c[nH]c2ccccc12)C(=O)N[C@@H](CCCN=C(N)N)C(=O)N[C@@H](CC(C)C)C(=O)N[C@@H](CC(C)C)C(=O)N[C@@H](Cc1ccccc1)C(=O)N[C@@H](CCCCN)C(=O)NCC(=O)O [AIPWSIWWRLLFKG]

- MIC [33]: 1.85 µM (≈ 4 µg/mL)
- MIC [34]: 1.85 µM (≈ 4 µg/mL)
SMILES: CC[C@H](C)[C@H](NC(=O)[C@H](CCCN=C(N)N)NC(=O)[C@H](CCCN=C(N)N)NC(=O)[C@H](CC(C)C)NC(=O)[C@H](CCCCN)NC(=O)[C@H](CCCCN)NC(=O)[C@H](Cc1c[nH]c2ccccc12)NC(=O)[C@H](CCCN=C(N)N)NC(=O)[C@H](CCCCN)NC(=O)[C@H](Cc1c[nH]c2ccccc12)NC(=O)[C@@H](N)Cc1c[nH]c2ccccc12)C(=O)N[C@@H](Cc1ccccc1)C(=O)N[C@@H](CC(C)C)C(=O)N[C@@H](CCSC)C(=O)N[C@@H](CC(C)C)C(=O)O [WWKRWKKLRRIFLML]

The next lines start with the compound.

SMILES: CC[C@H](C)[C@H](NC(=O)CN)C(=O)NCC(=O)N[C@H](C(=O)N[C@@H](CCCCN)C(=O)N[C@H](C(=O)N[C@@H](CC(C)C)C(=O)NCC(=O)NCC(=O)N[C@H](C(=O)N[C@@H](CCCCN)C(=O)N[C@H](C(=O)N[C@@H](C)C(=O)N[C@@H](CC(C)C)C(=O)N[C@@H](CCCCN)C(=O)NCC(=O)N[C@@H](C)C(=O)N[C@@H](CC(C)C)C(=O)N[C@@H](CCCCN)C(=O)N[C@@H](CCC(=O)O)C(=O)N[C@@H](CC(C)C)C(=O)N[C@@H](C)C(=O)N[C@@H](CO)C(=O)N[C@H](C(=O)N[C@@H](Cc1ccc(O)cc1)C(=O)N[C@H](C(=O)N[C@@H](CC(N)=O)C(N)=O)C(C)C)[C@@H](C)O)[C@@H](C)O)C(C)C)[C@@H](C)CC)[C@@H](C)O [GIGTKILGGVKTALKGALKELASTYVN]
- MIC [10]: 7.21 µM (≈ 19.5 µg/mL)
- MIC [11]: 3.33 µM (≈ 9 µg/mL)
- MIC [12]: 7.21 µM (≈ 19.5 µg/mL)
- MIC [13]: 7.21 µM (≈ 19.5 µg/mL)
- MIC [14]: 0.999 µM (≈ 2.7 µg/mL)
- MIC [15]: 1.11 µM (≈ 3 µg/mL)
- MIC [16]: 7.21 µM (≈ 19.5 µg/mL)

SMILES: CC[C@H](C)[C@H](NC(=O)CN)C(=O)N[C@@H](CC(C)C)C(=O)N[C@@H](CC(=O)O)C(=O)N[C@H](C(=O)N[C@@H](CC(C)C)C(=O)N[C@@H](CCCCN)C(=O)N[C@@H](CCC(N)=O)C(=O)N[C@@H](CC(C)C)C(=O)NCC(=O)N[C@@H](CCCCN)C(=O)N[C@@H](C)C(=O)N[C@@H](C)C(=O)N[C@@H](C)C(=O)N[C@@H](CCC(N)=O)C(=O)N[C@@H](CO)C(=O)N[C@@H](CC(C)C)C(=O)N[C@@H](CC(C)C)C(=O)N[C@@H](CO)C(=O)N[C@@H](CCCCN)C(=O)N[C@@H](C)C(=O)N[C@@H](C)C(=O)N[C@H]1CSSC[C@@H](C(=O)O)NC(=O)[C@H]([C@@H](C)O)NC(=O)[C@H](CCCCN)NC(=O)[C@H](C)NC(=O)[C@H](CC(C)C)NC(=O)[C@H](CCCCN)NC1=O)[C@@H](C)O [GILDTLKQLGKAAAQSLLSKAACKLAKTC]
- MIC [17]: ≥ 50 µM
- MIC [13]: 50 µM (≈ 147 µg/mL)
- MIC [18]: 3.1 µM (≈ 9.13 µg/mL)
- MIC [19]: 6.3 µM (≈ 18.5 µg/mL)
- MIC [20]: ≥ 100 µM
- MIC [21]: ≥ 50 µM
- MIC [22]: ≥ 50 µM
- MIC [23]: ≥ 50 µM
- MIC [24]: 6.3 µM (≈ 18.5 µg/mL)

SMILES: CC[C@H](C)[C@H](N)C(=O)N[C@@H](CC(C)C)C(=O)N1CCC[C@H]1C(=O)N[C@H](C(=O)N[C@H](C(=O)NCC(=O)N[C@@H](CCCCN)C(=O)N[C@H](C(=O)N[C@@H](CC(C)C)C(=O)N[C@@H](CO)C(=O)N[C@H](C(=O)N[C@H](C(=O)N[C@@H](Cc1ccccc1)C(=O)NCC(=O)N[C@@H](CCCCN)C(=O)O)[C@@H](C)CC)[C@@H](C)O)[C@@H](C)CC)[C@@H](C)CC)[C@@H](C)CC [ILPIIGKILSTIFGK]
- MIC [25]: 6.25 µM (≈ 10.1 µg/mL)
- MIC [26]: 12.5 µM (≈ 20.2 µg/mL)
- MIC [27]: 25 µM (≈ 40.3 µg/mL)
- MIC [28]: ≥ 50 µM

SMILES: CC(=O)N[C@@H](CCCN=C(N)N)C(=O)NCC(=O)N[C@@H](CCCN=C(N)N)C(=O)N[C@@H](CCCCN)C(=O)NCC(=O)NCC(=O)N[C@@H](CCCN=C(N)N)C(=O)N[C@@H](CCCN=C(N)N)C(=O)N[C@@H](CCCCN)C(=O)N[C@@H](CCCCN)C(=O)O [RGRKGGRRKK]
- MIC [29]: 3 µM (≈ 3.72 µg/mL)
- MIC [30]: 6 µM (≈ 7.44 µg/mL)
- MIC [13]: 1.5 µM (≈ 1.86 µg/mL)

SMILES: CC[C@H](C)[C@H](NC(=O)CNC(=O)[C@H](CCC(=O)O)NC(=O)CNC(=O)[C@H](C)NC(=O)CNC(=O)[C@H](Cc1cnc[nH]1)NC(=O)[C@@H]1CCCN1C(=O)[C@@H](N)CCCN=C(N)N)C(=O)N[C@@H](CC(=O)O)C(=O)N[C@@H](CCCN=C(N)N)C(=O)N[C@H](C(=O)N1CCC[C@H]1C(=O)N[C@@H](C)C(=O)NCC(=O)N1CCC[C@H]1C(=O)N[C@@H](CO)C(=O)N1CCC[C@H]1C(=O)N[C@@H](CO)C(=O)N[C@@H](CCC(=O)O)C(=O)N[C@H](C(=O)NCC(=O)N[C@@H](CC(C)C)C(=O)N[C@@H](C)C(=O)N[C@H](C(=O)N1CCC[C@H]1C(=O)N[C@@H](CO)C(=O)NCC(=O)N[C@@H](CCCCN)C(=O)O)[C@@H](C)CC)C(C)C)C(C)C [RPHGAGEGIDRVPAGPSPSEVGLAIPSGK]
- MIC [31]: 1.7 µM (≈ 4.78 µg/mL)
- MIC [32]: 1.7 µM (≈ 4.78 µg/mL)
